Assay results: patent US20030207856A1, “Medical devices and compositions for delivering anti-proliferatives to anatomical sites at risk for restenosis” (priority 2002, published 2003)

Tested on: Human coronary smooth muscles cells (HCASMC)
Assay: Human coronary artery smooth muscle cell proliferation inhibition
Assay type: cell-based
Details: day four, both cell culture schemes, FIGS. 6 and 7
Procedure: Inhibition of Human Coronary Artery Smooth Muscle Cells by Geldanamycin
1. Human coronary smooth muscles cells (HCASMC) were obtained from Clonetics, a division of Cambrex, Inc.
2. HCASMA basal media, supplied by Clonetics and supplemented with fetal bovine serum, insulin, hFGF-B (human fibroblast growth factor) hEGF (human epidermal growth factor).
Human coronary smooth muscles cells (HCASMC) were seeded in 24 well polystyrene tissue culture plates at a density of 5×10^3 cells per well. Two different feeding and reading strategies were employed. Strategy 1: Cells were plated in cell culture media containing various concentrations of geldanamycin (see Table 1) and incubated at 37° C. for 48 hours. After the initial 48 hour incubation, the geldanamycin containing plating media was changed and the cells were fed with drug free media and incubated for an additional 48 hours and then read.
Strategy 2: Cells were plated in cell culture media containing various concentrations of geldanamycin (see Table 1) and incubated at 37° C. for 48 hours. After the initial 48 hours incubation, the geldanamycin-containing plating media was changed and the cells were fed with geldanamycin-containing media and incubated for an additional 48 hours and then read. […]
On day four cultures were analyzed to determine the proliferation inhibition effects of geldanamycin. […]

COC1=C2C[C@@H](C)C[C@H](OC)[C@H](O)[C@@H](C)/C=C(\C)[C@H](OC(N)=O)[C@@H](OC)/C=C\C=C(/C)C(=O)NC(=CC1=O)C2=O [geldanamycin]
HCASMC inhibition (percent inhibition of proliferation) (geldanamycin 0.9 nM): > 50%
HCASMC inhibition (percent inhibition of proliferation) (geldanamycin 50 nM): ~100%
